Results from ChEMBL document CHEMBL3596091, “Synthesis and evaluation of novel fluorinated pyrazolo-1,2,3-triazole hybrids as antimycobacterial agents” (Bioorg Med Chem Lett, 2015).
Values after ≈ are worked out from the molar mass of the structure shown.

Assays:
[1] = test system: Mycolicibacterium smegmatis; assay: Antimycobacterial activity against Mycobacterium smegmatis str. MC2 155 incubated for 30 hrs by turbidometric assay; format: functional; conditions: str. MC2 155, 30 h
[2] = test system: A549; assay: Cytotoxicity against human A549 cells incubated for 48 hrs by SRB assay; format: cell-based; conditions: A549, 48 h

O=C(Cn1cc(-c2ccc(OC(F)(F)F)cc2)nn1)Nc1c(C(F)(F)F)n[nH]c1-c1ccccc1
MIC [1]: 35.4 µg/mL (≈ 71.3 µM)
IC50 [2]: 45.3 µg/mL (≈ 91.2 µM)

O=C(Cn1cc(-c2ccccc2C(F)(F)F)nn1)Nc1c(C(F)(F)F)n[nH]c1-c1ccccc1
MIC [1]: 53 µg/mL (≈ 110 µM)
IC50 [2]: 64.2 µg/mL (≈ 134 µM)

Cc1cccc(-c2cn(CC(=O)Nc3c(C(F)(F)F)n[nH]c3-c3ccccc3)nn2)c1
MIC [1]: 29.9 µg/mL (≈ 70.2 µM)
IC50 [2]: 60.6 µg/mL (≈ 142 µM)

COc1ccc(/C=N/NC(=O)c2cn(CC(=O)Nc3c(C(F)(F)F)n[nH]c3-c3ccccc3)nn2)cc1
MIC [1]: 45.6 µg/mL (≈ 88.9 µM)
IC50 [2]: > 100 µg/mL

NNC(=O)c1cn(CC(=O)Nc2c(C(F)(F)F)n[nH]c2-c2ccccc2)nn1
MIC [1]: 33.9 µg/mL (≈ 85.9 µM)
IC50 [2]: 67.6 µg/mL (≈ 171 µM)

O=C(Cn1cc(C(=O)c2cn(-c3ccccc3)nc2-c2ccc(Cl)cc2)nn1)Nc1c(C(F)(F)F)n[nH]c1-c1ccccc1
MIC [1]: > 100 µg/mL
IC50 [2]: > 100 µg/mL

COc1ccc(C(=O)c2cn(CC(=O)Nc3c(C(F)(F)F)n[nH]c3-c3ccccc3)nn2)cc1
MIC [1]: 15.3 µg/mL (≈ 32.6 µM)
IC50 [2]: 80.7 µg/mL (≈ 172 µM)

O=C(Cn1cc(-c2ccccc2)nn1)Nc1c(C(F)(F)F)n[nH]c1-c1ccccc1
MIC [1]: 35.9 µg/mL (≈ 87.1 µM)
IC50 [2]: 52.2 µg/mL (≈ 127 µM)

CCCCc1cn(CC(=O)Nc2c(C(F)(F)F)n[nH]c2-c2ccccc2)nn1
MIC [1]: 65.5 µg/mL (≈ 167 µM)
IC50 [2]: > 100 µg/mL

O=C(Cn1cc(C(=O)N/N=C/c2ccc(C(F)(F)F)cc2)nn1)Nc1c(C(F)(F)F)n[nH]c1-c1ccccc1
MIC [1]: > 100 µg/mL
IC50 [2]: > 100 µg/mL

NNC(=O)c1ccncc1 [ISONIAZID]
MIC [1]: 12.1 µg/mL (≈ 88 µM)

COc1cccc2c1C(=O)c1c(O)c3c(c(O)c1C2=O)C[C@@](O)(C(=O)CO)C[C@@H]3O[C@H]1C[C@H](N)[C@H](O)[C@H](C)O1 [DOXORUBICIN]
IC50 [2]: 8.5 µg/mL (≈ 15.6 µM)

CCOC(=O)c1cn(CC(=O)Nc2c(C(F)(F)F)n[nH]c2-c2ccccc2)nn1
MIC [1]: 27.7 µg/mL (≈ 67.9 µM)
IC50 [2]: > 100 µg/mL

O=C(Cn1cc(COc2cccc3c(C(F)(F)F)cc(=O)oc23)nn1)Nc1c(C(F)(F)F)n[nH]c1-c1ccccc1
MIC [1]: 53.7 µg/mL (≈ 92.8 µM)
IC50 [2]: > 100 µg/mL

CCCCCc1ccc(-c2cn(CC(=O)Nc3c(C(F)(F)F)n[nH]c3-c3ccccc3)nn2)cc1
MIC [1]: 35.4 µg/mL (≈ 73.3 µM)
IC50 [2]: > 100 µg/mL

O=C(Cn1cc(-c2ccc(-c3ccccc3)cc2)nn1)Nc1c(C(F)(F)F)n[nH]c1-c1ccccc1
MIC [1]: 31.8 µg/mL (≈ 65 µM)
IC50 [2]: 57 µg/mL (≈ 117 µM)

CO[C@H]1/C=C/O[C@@]2(C)Oc3c(C)c(O)c4c(O)c(c(/C=N/N5CCN(C)CC5)c(O)c4c3C2=O)NC(=O)/C(C)=C\C=C\[C@H](C)[C@H](O)[C@@H](C)[C@@H](O)[C@@H](C)[C@H](OC(C)=O)[C@@H]1C [RIFAMPIN]
MIC [1]: 2.15 µg/mL (≈ 2.61 µM)

COc1cccc(NCc2cn(CC(=O)Nc3c(C(F)(F)F)n[nH]c3-c3ccccc3)nn2)c1
MIC [1]: 53.9 µg/mL (≈ 114 µM)
IC50 [2]: 38.3 µg/mL (≈ 81.3 µM)

Cc1ccc(-c2nn(-c3ccccc3)cc2C(=O)c2cn(CC(=O)Nc3c(C(F)(F)F)n[nH]c3-c3ccccc3)nn2)cc1
MIC [1]: 94.5 µg/mL (≈ 158 µM)
IC50 [2]: > 100 µg/mL

CC(C)(C)c1ccc(-c2cn(CC(=O)Nc3c(C(F)(F)F)n[nH]c3-c3ccccc3)nn2)cc1
MIC [1]: > 100 µg/mL
IC50 [2]: 25.8 µg/mL (≈ 55.2 µM)

Cc1cccc(C)c1NCc1cn(CC(=O)Nc2c(C(F)(F)F)n[nH]c2-c2ccccc2)nn1
MIC [1]: 64.1 µg/mL (≈ 136 µM)
IC50 [2]: 52.9 µg/mL (≈ 113 µM)

COc1cc(NCc2cn(CC(=O)Nc3c(C(F)(F)F)n[nH]c3-c3ccccc3)nn2)cc(OC)c1OC
MIC [1]: 78.3 µg/mL (≈ 147 µM)
IC50 [2]: > 100 µg/mL

COc1ccc(/C=N/NC(=O)c2cn(CC(=O)Nc3c(C(F)(F)F)n[nH]c3-c3ccccc3)nn2)cc1OC
MIC [1]: 41.3 µg/mL (≈ 76.1 µM)
IC50 [2]: > 100 µg/mL

COc1ccc(-c2cn(CC(=O)Nc3c(C(F)(F)F)n[nH]c3-c3ccccc3)nn2)c(C)c1
MIC [1]: 85.6 µg/mL (≈ 188 µM)
IC50 [2]: 54 µg/mL (≈ 118 µM)

O=C(Cn1cc(CNc2cccc(C(F)(F)F)c2)nn1)Nc1c(C(F)(F)F)n[nH]c1-c1ccccc1
MIC [1]: 99.6 µg/mL (≈ 196 µM)
IC50 [2]: 25.3 µg/mL (≈ 49.7 µM)

O=C(Cn1cc(C(=O)N/N=C/c2ccccc2C(F)(F)F)nn1)Nc1c(C(F)(F)F)n[nH]c1-c1ccccc1
MIC [1]: 16.2 µg/mL (≈ 29.4 µM)
IC50 [2]: > 100 µg/mL

O=C(Cn1cc(C(=O)c2cn(-c3ccccc3)nc2-c2ccccc2)nn1)Nc1c(C(F)(F)F)n[nH]c1-c1ccccc1
MIC [1]: 28.8 µg/mL (≈ 49.5 µM)
IC50 [2]: 68 µg/mL (≈ 117 µM)

COc1ccc(-c2nn(-c3ccccc3)cc2C(=O)c2cn(CC(=O)Nc3c(C(F)(F)F)n[nH]c3-c3ccccc3)nn2)cc1
MIC [1]: 25.3 µg/mL (≈ 41.2 µM)
IC50 [2]: 59.6 µg/mL (≈ 97.3 µM)

COc1ccc(C(=O)c2cn(CC(=O)Nc3c(C(F)(F)F)n[nH]c3-c3ccccc3)nn2)cc1OC
MIC [1]: 65.7 µg/mL (≈ 131 µM)
IC50 [2]: 26.8 µg/mL (≈ 53.6 µM)

O=C(Cn1cc(C(=O)N/N=C/c2cccc(Oc3ccccc3)c2)nn1)Nc1c(C(F)(F)F)n[nH]c1-c1ccccc1
MIC [1]: 16.6 µg/mL (≈ 28.9 µM)
IC50 [2]: > 100 µg/mL

COc1ccc(NCc2cn(CC(=O)Nc3c(C(F)(F)F)n[nH]c3-c3ccccc3)nn2)cc1OC
MIC [1]: 58.3 µg/mL (≈ 116 µM)
IC50 [2]: > 100 µg/mL
